Experimental data reported in patent EP3906926A1, “PROLINE HYDROXYLASE INHIBITORS FOR USE IN THE SKELETAL MUSCLE REGENERATION” (Policlinico San Donato S.p.A.- Istituto di Ricovero e Cura …, priority 2020, dated 2021).

Tests used:
[1] = tested on: PHD2; assay: qPCR of HIF-1α target gene PHD2; type: cell-based, murine; details: IOX2 or FG-4592 treatment, vs untreated controls
Description: (§1) Total RNA was isolated using ReliaPrep™ RNA Miniprep Systems (Promega), and reverse transcribed to cDNA using the iScript cDNA synthesis kit (BioRad), according to the Manufacturer's instructions. Real-Time Quantitative PCR was performed on 10 ng of cDNA template, 0.2 µM primers, and GoTaq® qPCR Master Mix (Promega) in 20 µl final volume using a StepOnePlus® Real-Time PCR System (Applied Biosystem). […] RPL13 was used as the housekeeping gene. The amplification program consisted in an initial denaturation at 95°C for 3 minutes, followed by 40 cycles of 5 seconds each at 95°C and 30 seconds at 57°C; WNT7a was amplified at 53°C. Relative quantification of target genes was performed in triplicate and calculated by the equation 2^-ΔΔCt.
as §1, with “ReliaPrepTM” for “ReliaPrep™”, “2-ΔΔCt.” for “2^-ΔΔCt.”

[2] = tested on: C2C12 murine myoblasts; assay: CellTox Cytotoxicity Assay; details: at IC50 concentrations (50 µM IOX2, 40 µM FG-4592), 24 hours, vs untreated controls
Description: To assess PHDs inhibitors cytotoxicity, 5 x 10^3 C2C12 murine myoblasts were seeded in a 96-well plate.

[3] = tested on: WNT7a promoter; assay: Nano-Glo luciferase reporter assay of pNL1.1-WNT7a promoter activity; type: cell-based, murine; details: 24 hours at IC50 working concentrations
Description: Genomic DNA was extracted from C2C12 murine myoblast and used as the template for WNT7a promoter amplification. The PCR reaction was prepared using a Phusion High-Fidelity kit (New England Biolabs) and employing the following primers: forward 5'-[…]-3' (SEQ ID NO:1), containing KpnI enzymatic site, and reverse 5'-[…]-3' (SEQ ID NO:2) containing the HindIII enzymatic site. The PCR fragment and the vector pNL1.1(Nluc) (Promega) were digested with KnpI and HindIII (Promega) restriction enzymes for 2 hours at 37°C and, then, they were purified from agarose gel using Wizard® SV Gel and PCR Clean-Up System (Promega). The fragment was inserted into the multiple cloning site of pNL1.1 vector using T4 Ligase Fast (Promega) and the reaction was incubated for 1 hour at room temperature. The presence of the insert in the plasmid was finally verified by DNA sequencing.
Briefly, cells were seeded in a 96-well plate at a concentration of 5 x 10^3 cells per well, transfected with the pNL1.1 or pNL1.1WNT7a_promoter (90 ng) plasmids and pGL4.54(luc2/TK) (10 ng) plasmid as internal control, according to ViaFect Transfection Reagent® protocol (Promega), and then incubated for 24 hours. […] To turn off the luminescence of the Firefly luciferase and provide the substrate for the Nanoluc, an equal volume of NanoDLR™ Stop&Glo® Reagent was added to the mixture and incubated for 30 minutes before analysis.

[4] = tested on: MHC; assay: qPCR of MHC during differentiation; type: cell-based, murine; details: day 7 of differentiation, IOX2 or FG-4592 pre-treated myoblasts
Description: as §1
as §1, with “ReliaPrepTM” for “ReliaPrep™”, “2-ΔΔCt.” for “2^-ΔΔCt.”

[5] = tested on: WNT7a silenced murine myoblasts (WNT7a-KO); assay: Differentiation of WNT7a-KO versus wild type myoblasts after chemical hypoxia (fusion and differentiation indexes); type: cell-based; details: WNT7a-KO vs wild type cells, 24 hours inhibitor pre-treatment then 7 days differentiation
Description: After differentiation for 7 days in DM, cells were washed with phosphate saline buffer (PBS) and fixed for 15 minutes in 4% (w/v) paraformaldehyde at room temperature. For permeabilization and blocking, cells were incubated for 1 hour in the presence of PBS 0.1% (v/v) Triton X-100 (TX-100, Merck) and 5% (w/v) FBS (Merck) at room temperature. […] After incubation, cells were washed three times in PBS and incubated for 1 hour at room temperature with an anti-mouse FITC-conjugated secondary antibody (Jackson ImmunoResearch), diluted 1:200. […] Myogenesis was assessed by measuring the myotube area and the number of myonuclei per myotube using a fluorescent microscope (Olympus TH4-200) equipped with an acquisition camera. To quantify both differentiation and fusion indexes, ten fields were chosen randomly and, for each field, a minimum of one hundred myosin-positive myotubes with more than two myonuclei were measured using the ImageJ v1.49o software. The area and the number of nuclei per myotube was the mean of ten measurements averaged from three different experiments.
Therefore, WNT7a silencing was conducted by Crispr/Cas9 genome editing in C2C12 murine myoblasts and the effects on myogenesis were evaluated.
The knockout of WNT7a gene was obtained performing CRISPR/Cas9 genome editing. In particular, crRNAs and tracrRNA were obtained from TrueGuide™ Synthetic gRNA kit (ThermoFisher Scientific) and they were reconstituted and annealed following the manufacturer's instructions. […] Briefly, they were re-suspended using 1X Tris-EDTA buffer pH 8.0 to prepare a 100 µM stock solution. Then, gRNAs were generated preparing a mix composed of 10 µL crRNA, 10 µL tracrRNA, 10 µL annealing buffer, and 20 µL nuclease-free water. The mixture was incubated at 95 °C for 5 minutes followed by 10 mins on 78 °C, and then 25 °C for 5 minutes.
The transfection was performed seeding 5 x 10^5 murine myoblasts C2C12 in a 24-well plate.
The diluted Lipofectamine ™ CRISPRMAX ™ reagent in Opti-MEM I Medium was incubated 1 minute at room temperature and, then, it was added to gRNA/Opti-MEM I solution for 15 minutes. Then, the mixture was added to murine myoblasts and it was incubated at 37°C for 2 days. After the incubation, single-cell clones were isolated using a limiting dilution cloning in 96-well plates. The efficiency of WNT7a knockout (WNT7a-KO) was verified by sequencing.

[6] = tested on: C2C12 murine myoblasts; assay: RealTime-Glo MT Cell Viability Assay; details: at IC50 concentrations (50 µM IOX2, 40 µM FG-4592), 24 hours, vs untreated controls
Description: RealTime-Glo™ kits MT Cell Viability Assay (Promega) was used to investigate the effects of IOX2 and FG-4592 treatment on cell viability. Briefly, 5 x 10^3 C2C12 murine myoblasts were seeded in a 96 well plate and incubated for 24 hours (T0) with MT Cell Viability Substrate (1:1000 dilution) and NanoLuc® Enzyme (1:1000 dilution). Then, 50 µM IOX2 or 40 µM FG-4592 were added to the cell cultures and incubated for other 24 hours before luminescence analysis.
RealTime-Glo™ kits MT Cell Viability Assay (Promega) was used to investigate the effects of PLG treatment on cell viability. Briefly, 5 x 10^3 C2C12 murine myoblasts were seeded in a 96 well plate and incubated for 24 hours (T0) with MT Cell Viability Substrate (1:1000 dilution) and NanoLuc® Enzyme (1:1000 dilution). Then, each PLG inhibitor was added at its EC50 to the cell cultures and incubated for other 24 hours before luminescence analysis.

[7] = tested on: Myogenin; assay: qPCR of Myogenin during differentiation; type: cell-based, murine; details: day 3 of differentiation, IOX2 or FG-4592 pre-treated myoblasts
Description: as §1
as §1, with “ReliaPrepTM” for “ReliaPrep™”, “2-ΔΔCt.” for “2^-ΔΔCt.”

## Cc1nc(C(=O)NCC(=O)O)c(O)c2ccc(Oc3ccccc3)cc12 [FG-4592, Roxadustat]
[1]
  increase in the expression of PHD2: 4.8 fold
[2]
  Cell toxicity: no significant changes
[3]
  WNT7a promoter activation, luminescence increase: 1.3 fold
[4]
  enhancement of MHC: 2.3 fold
[5]
  decrease in fusion index: 63%
  reduction in differentiation index: 15%
[6]
  Cell viability: no significant changes
[7]
  increase of Myogenin: 1.4 fold

## O=C(O)CNC(=O)c1c(O)c2ccccc2n(Cc2ccccc2)c1=O [IOX2]
[1]
  increase in the expression of PHD2: 4.4 fold
[2]
  Cell toxicity: no significant changes
[3]
  WNT7a promoter activation, luminescence increase: 1.4 fold
[4]
  enhancement of MHC: 2.2 fold
[5]
  decrease in fusion index: 67%
  reduction in differentiation index: no significant changes
[6]
  Cell viability: no significant changes
[7]
  increase of Myogenin: 2.0 fold
